# According to the supplement of paper PMC10307832:
# Compound: CCN(CC)CCNC(=O)c1c(C)[nH]c(/C=C2\C(=O)Nc3ccc(F)cc32)c1C [Sunitinib] + CS(=O)(=O)N1CCN(Cc2cc3nc(-c4cccc5[nH]ncc45)nc(N4CCOCC4)c3s2)CC1 [Pictilisib] (partner 1 µM)
# Test: relative viability (nuclei count vs DMSO), 5 days (fraction); higher = more cells survive
# Outline: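 Lung cancer cell lines were pin-tool dosed in 1536-well plates on the day after seeding, with either a lone drug or a fixed anchor-drug dose plus five library-drug doses (not always all listed) in √10 steps. Nuclei were counted on 4× images after 5 days. Relative viability is the ratio of treated-well to vehicle-well nuclei counts, with each value a median of duplicate plates.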
Cell Line,relative viability (first compound 0.02 µM),relative viability (first compound 0.06325 µM),relative viability (first compound 0.2 µM),relative viability (first compound 0.6325 µM),relative viability (first compound 2 µM)
NCI-H650,0.828,1.09,0.932,0.858,0.843
NCI-H661,0.385,0.362,0.368,0.319,0.441
NCI-H727,0.278,0.417,0.542,0.325,0.344
NCI-H838,0.409,0.499,0.506,0.487,0.361
NCI-H1299,0.748,0.654,0.862,–,0.558
NCI-H1355,0.431,0.448,0.477,0.399,0.447
NCI-H1395,0.609,0.646,0.662,0.614,0.594
NCI-H1437,0.376,0.559,0.427,0.456,0.434
NCI-H1563,0.637,0.641,0.695,0.653,0.643
NCI-H1650,0.535,0.559,0.545,0.681,0.536
NCI-H1651,0.462,0.729,0.616,0.614,0.593
NCI-H1666,0.459,0.517,0.603,0.55,0.429
NCI-H1703,0.215,0.208,0.245,0.224,0.204
NCI-H1734,0.433,0.518,0.522,0.452,0.423
NCI-H1755,0.371,0.481,0.472,0.454,0.451
NCI-H1792,0.242,0.291,0.243,0.242,0.265
NCI-H1793,–,0.296,0.361,0.241,0.297
NCI-H1915,0.958,1.01,1.02,0.977,1.02
NCI-H1944,0.315,0.379,0.412,0.337,0.374

Cell Line,relative viability (first compound 0.02 µM),relative viability (first compound 0.06325 µM),relative viability (first compound 0.2 µM),relative viability (first compound 0.6325 µM),relative viability (first compound 2 µM)
NCI-H1975,0.285,0.345,0.319,0.33,0.237
NCI-H1993,0.777,0.913,0.808,0.832,0.92
NCI-H2009,0.748,0.791,0.842,0.876,0.758
NCI-H2023,0.205,0.265,0.26,0.269,0.23
NCI-H2085,0.431,0.476,0.519,0.519,0.555
NCI-H2087,0.957,0.831,1.04,0.879,0.799
NCI-H2126,0.465,0.55,0.517,0.563,0.502
NCI-H2170,0.307,0.311,0.311,0.303,0.236
NCI-H2228,0.536,0.445,0.299,0.454,0.216
NCI-H2347,0.554,0.91,0.691,0.705,0.912
NCI-H2405,0.382,0.49,0.502,0.524,0.474
NCI-H3122,0.576,0.64,0.583,0.577,0.548
PC-3 [JPC-3],0.819,0.768,0.841,0.685,0.694
PC-14,0.698,0.723,0.957,0.706,0.553
RERF-LC-KJ,0.642,0.507,0.51,0.468,0.528
SK-LU-1,0.538,0.66,0.603,0.53,0.483
SK-MES-1,0.352,0.382,0.344,0.316,0.359
SW 1573,0.511,0.438,0.591,0.555,0.458
UMC-11,0.793,0.883,0.968,0.814,0.866
